From ChEMBL document CHEMBL1201862, “PubChem BioAssay data set” (2004) come the findings set out here.

Some test systems named below: PC-3; Hs-578T; SN12C; MCF7; RXF 393; SNB-75; HOP-92; UACC-62; OVCAR-5; M14; HCT-15; KM12; OVCAR-3; IGROV-1; SK-MEL-5; SNB-19; ACHN; SK-MEL-2; K562.
Assay in all cases: growth of human tumour cells (NCI), 48 h

Molecules are shown by their SMILES. “And” between values parts separate entries of the source, which are not always exact repeats. Identical values can stand only once.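 Interpolation was linear, between the two tested concentrations surrounding the appropriate level; five concentrations were tested over 48 hours in 96-well plates. GI50 marks 50% less growth.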 The source made the active and inactive calls. No stated cut-off is given here; in the data, active = GI50 up to about 1.1 µM and inactive = higher.

With `CC1=CC(=O)/C(=C/n2c(=S)[nH]c3cc(C)ccc32)C(=O)O1`, the GI50 with PC-3 was > 100 µM (inactive); in the test with Hs-578T it was > 100 µM (inactive); with SN12C, > 100 µM (inactive); with MCF7 it was > 100 µM (inactive); in the test with RXF 393, 6.21 µM (inactive); in the test with SNB-75 it was > 100 µM (inactive). The GI50 in the test with HOP-92 was > 100 µM (inactive); in the test on UACC-62 it was > 100 µM (inactive); in the test with OVCAR-5, > 100 µM (inactive); in the test on M14, > 100 µM (inactive); with HCT-15, above 100 µM; in the test on KM12, > 100 µM (inactive). The GI50 in the test with OVCAR-3, with IGROV-1, in the test on SK-MEL-5, in the test with SNB-19, in the test on ACHN and in the test on SK-MEL-2 was > 100 µM (inactive) in each case.

Regarding `CCOC(=O)c1c(-c2ccc(O)c(OC)c2)c(C#N)c(=S)n(C2OC(COC(C)=O)C(OC(C)=O)C(OC(C)=O)C2OC(C)=O)c1-c1ccccc1` (stereo not given), the GI50 in the test with PC-3 was 43.8 µM (inactive) and 31.4 µM (inactive); with Hs-578T, > 100 µM (inactive); with SN12C, > 100 µM (inactive) and 88.9 µM (inactive); with RXF 393, > 100 µM (inactive) and 58.9 µM (inactive); with HOP-92, 24.9 µM (inactive); in the test with OVCAR-5, > 100 µM (inactive). Moreover, the GI50 with M14 is 82.4 µM (inactive); in the test with HCT-15, 98.2 µM; with KM12 it was 45.4 µM (inactive) and 50.8 µM (inactive); in the test on SNB-19, > 100 µM (inactive); in the test on ACHN, 48.8 µM (inactive) and 61.8 µM (inactive).

On to `CC(C)CC1[C@@H](OCc2ccccc2)COS(=O)N1Cc1ccccc1` (stereo not given in full), for which the GI50 is 30.1 µM (inactive) in the test on PC-3; 23.9 µM (inactive) in the test with Hs-578T; 57.8 µM (inactive) with SN12C; 41.9 µM (inactive) in the test with MCF7; 21.5 µM (inactive) with SNB-75; 39.4 µM (inactive) with K562. For the same compound, the GI50 in the test on UACC-62 was 60 µM (inactive); in the test on OVCAR-5 it was > 100 µM (inactive); in the test on M14, 51.4 µM (inactive); in the test on HCT-15, 30.8 µM; in the test with KM12, 26.8 µM (inactive); in the test on OVCAR-3 it was 54.2 µM (inactive). The GI50 in the test with IGROV-1 is 31 µM (inactive); with SK-MEL-5 it was 33.5 µM (inactive); in the test on SNB-19 it was 41.7 µM (inactive); in the test with ACHN, 35 µM (inactive); in the test with SK-MEL-2, 31 µM (inactive).

As for `COC(=O)c1c(-c2ccccc2)sc(-c2cccc3ccccc23)c1C(=O)OC`, the GI50 in the test on SN12C, in the test with RXF 393, in the test with SNB-75, in the test with K562, in the test with HOP-92 and in the test on UACC-62 was > 100 µM (inactive) throughout. In addition, the GI50 was > 100 µM (inactive) in the test on OVCAR-5; > 100 µM (inactive) with M14; above 100 µM in the test on HCT-15; > 100 µM (inactive) in the test on KM12; 81.1 µM (inactive) in the test with OVCAR-3; > 100 µM (inactive) with IGROV-1. The GI50 in the test on SK-MEL-5, in the test with SNB-19, in the test on ACHN and in the test on SK-MEL-2 was > 100 µM (inactive) throughout.

For the compound `CCN(CC)c1ccc2cc(-c3nnc(-c4ccccc4O)o3)c(=O)oc2c1`, the GI50 in the test with PC-3 is 10.3 µM (inactive); in the test with Hs-578T, 20.1 µM (inactive); in the test on MCF7, 10.3 µM (inactive); in the test with K562, 5.96 µM (inactive); in the test on UACC-62, 10.6 µM (inactive); with OVCAR-5, 16.2 µM (inactive). Also, the GI50 in the test with M14 is 11.1 µM (inactive); in the test with HCT-15, 5.75 µM; in the test on KM12 it was 12.1 µM (inactive); with OVCAR-3, 5.97 µM (inactive); in the test on IGROV-1 it was 3.12 µM (inactive); in the test with SK-MEL-5, 6.93 µM (inactive). In addition, the GI50 in the test on SNB-19 is 9.68 µM (inactive); in the test on ACHN it was 10.2 µM (inactive); with SK-MEL-2, 14.5 µM (inactive).

For `NC(=O)C(=Cc1ccc(CP(=O)(O)O)cc1)C(N)=O`, the GI50 in the test with SN12C, with RXF 393, in the test with SNB-75, in the test on K562, with HOP-92 and with UACC-62 was > 100 µM (inactive) each time. Further, the GI50 with OVCAR-5 is > 100 µM (inactive); with M14, > 100 µM (inactive); in the test with HCT-15, above 100 µM; in the test with KM12, > 100 µM (inactive); with OVCAR-3 it was > 100 µM (inactive); in the test with IGROV-1, > 100 µM (inactive). For the same compound, the GI50 in the test with SK-MEL-5, in the test on SNB-19, in the test on ACHN and with SK-MEL-2 was > 100 µM (inactive) throughout.

For `O=C(CC1C(=O)Nc2ccccc2S1(=O)=O)Nc1cccc(Cl)c1` (stereo not given), the GI50 in the test on SN12C is 15.7 µM (inactive); in the test on RXF 393, 16.3 µM (inactive); in the test on SNB-75, 16.8 µM (inactive); in the test on K562 it was 17.8 µM (inactive); with HOP-92, 16.1 µM (inactive); with UACC-62 it was 15.1 µM (inactive). Besides, the GI50 in the test with OVCAR-5 is 23.2 µM (inactive); in the test with M14 it was 18.8 µM (inactive); in the test on HCT-15, 15.5 µM; with OVCAR-3, 15.6 µM (inactive); in the test with IGROV-1 it was 18.9 µM (inactive); in the test on SK-MEL-5 it was 19.1 µM (inactive). The GI50 in the test on SNB-19 is 19.4 µM (inactive); in the test on ACHN it was 16.9 µM (inactive); with SK-MEL-2 it was 27.1 µM (inactive).

As for `CCOC(=O)C1=C(O)C(=O)c2cc(C)ccc2C1=O`, the GI50 with SN12C was > 100 µM (inactive); in the test on RXF 393, > 100 µM (inactive); with SNB-75, 43.5 µM (inactive); in the test with K562 it was > 100 µM (inactive); with HOP-92, > 100 µM (inactive); in the test with UACC-62 it was 44.1 µM (inactive). The GI50 was > 100 µM (inactive) in the test on OVCAR-5; 54.8 µM (inactive) in the test on M14; 77.8 µM with HCT-15; > 100 µM (inactive) in the test with KM12; 93.3 µM (inactive) with OVCAR-3; > 100 µM (inactive) in the test on IGROV-1. The GI50 is 31 µM (inactive) with SK-MEL-5, 31.6 µM (inactive) with SNB-19, > 100 µM (inactive) with ACHN and > 100 µM (inactive) with SK-MEL-2.

Take `CCOP(=O)(OCC)/C(C#N)=C\c1ccc(OC(C)=O)cc1`: the GI50 in the test on SN12C is > 100 µM (inactive); with RXF 393, > 100 µM (inactive); in the test on SNB-75, > 78.5 µM (inactive); in the test on K562, > 100 µM (inactive); in the test with HOP-92, > 100 µM (inactive); with UACC-62, > 100 µM (inactive). The GI50 was > 100 µM (inactive) in the test with OVCAR-5; > 100 µM (inactive) with M14; above 100 µM in the test on HCT-15; > 100 µM (inactive) in the test with KM12; > 100 µM (inactive) with OVCAR-3; > 100 µM (inactive) in the test with IGROV-1. Also, the GI50 in the test with SK-MEL-5, in the test with SNB-19, with ACHN and with SK-MEL-2 was > 100 µM (inactive) in each case.

Regarding `O=C1C2=Cc3ccccc3CCN2c2ccc([N+](=O)[O-])cc21`, the GI50 in the test with PC-3 was > 100 µM (inactive); in the test on Hs-578T, 64.6 µM (inactive); in the test on SN12C it was 81.5 µM (inactive); in the test on MCF7, 2.92 µM (inactive); in the test on RXF 393, > 100 µM (inactive); in the test with SNB-75, > 100 µM (inactive). In addition, the GI50 in the test with K562 was > 100 µM (inactive); with HOP-92 it was 41.2 µM (inactive); in the test with UACC-62, 55.5 µM (inactive); in the test on OVCAR-5, > 100 µM (inactive); with M14 it was > 100 µM (inactive); in the test with HCT-15, 58.3 µM. Further, the GI50 in the test on KM12 is > 100 µM (inactive); with OVCAR-3 it was 44.2 µM (inactive); with IGROV-1 it was > 100 µM (inactive); in the test on SK-MEL-5, 21.9 µM (inactive); in the test with SNB-19, > 100 µM (inactive); with ACHN, 43.2 µM (inactive).

As for `COc1nc2nccc-2c2occn12`, the GI50 in the test on SN12C, in the test with RXF 393, in the test with SNB-75, with K562, in the test with HOP-92 and in the test with UACC-62 was > 100 µM (inactive) in each case. The GI50 in the test with OVCAR-5 was > 100 µM (inactive); in the test on M14, > 100 µM (inactive); in the test on HCT-15, above 100 µM; in the test on KM12, > 100 µM (inactive); with OVCAR-3, > 100 µM (inactive); in the test on IGROV-1, > 100 µM (inactive). The GI50 in the test with SK-MEL-5, in the test on SNB-19, in the test on ACHN and with SK-MEL-2 was > 100 µM (inactive) each time.

Take `O=C1O[B-](c2ccccc2)(c2ccccc2)[NH2+]C1CS` (stereo not given): the GI50 with SN12C was 80.4 µM (inactive); in the test with RXF 393, 23.3 µM (inactive); in the test with SNB-75 it was 34.8 µM (inactive); with K562, 23.9 µM (inactive); in the test with HOP-92, 27.3 µM (inactive); in the test on UACC-62, 42 µM (inactive). The GI50 in the test on OVCAR-5 is > 100 µM (inactive); in the test on M14, 52.6 µM (inactive); with HCT-15, 36 µM; in the test on KM12, 31.8 µM (inactive); in the test on OVCAR-3, 38.8 µM (inactive); in the test on IGROV-1 it was 78 µM (inactive). The GI50 was 55 µM (inactive) in the test on SK-MEL-5, > 100 µM (inactive) in the test with SNB-19, 36.7 µM (inactive) in the test on ACHN and 83.8 µM (inactive) in the test on SK-MEL-2.
